Common to all, as to test: relative viability (nuclei count vs DMSO), 5 days (fraction); higher = more cells survive
Compound in test [1]: COc1cc2nccc(Oc3ccc(NC(=O)C4(C(=O)Nc5ccc(F)cc5)CC4)cc3)c2cc1OC [Cabozantinib] + CCNC(=O)c1noc(-c2cc(C(C)C)c(O)cc2O)c1-c1ccc(CN2CCOCC2)cc1 [Luminespib] (partner 0.01 µM)
In short, it runs like this: (§1)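 Lung cancer cell lines in 1536-well plates were dosed by pin tool the day after seeding, either with one drug alone or with a fixed anchor-drug dose plus five library-drug doses (not always all listed) in √10 steps. After 5 days, cells were fixed and their nuclei stained in one step (final 0.05% Triton X-100, 1% formaldehyde, 1 ug/ml Hoechst), then counted on 4× images. Relative viability is the nuclei count in treated wells divided by that in vehicle wells. Values are medians of duplicate plates.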

Compound in test [2]: O[C@@H](COc1cccc2ncccc12)CN1CCN([C@@H]2c3ccccc3[C@@H]3[C@H](c4ccccc42)C3(F)F)CC1 [Zosuquidar] + Nc1ncn([C@H]2C[C@H](O)[C@@H](CO)O2)c(=O)n1 [Decitabine] (partner 2 µM)
The method, boiled down:
as §1

Compound in test [3]: COc1cc2nccc(Oc3ccc(NC(=O)C4(C(=O)Nc5ccc(F)cc5)CC4)cc3)c2cc1OC [Cabozantinib] + C[C@@H](Oc1cc(-c2cnn(C3CCNCC3)c2)cnc1N)c1c(Cl)ccc(F)c1Cl [Crizotinib] (partner 1 µM)
In short, it runs like this: as §1

Compound in test [4]: O[C@@H](COc1cccc2ncccc12)CN1CCN([C@@H]2c3ccccc3[C@@H]3[C@H](c4ccccc42)C3(F)F)CC1 [Zosuquidar] + CC(C)C[C@H](NC(=O)[C@H](Cc1ccccc1)NC(=O)c1cnccn1)B(O)O [Bortezomib] (partner 0.002 µM)
The method, boiled down:
as §1

As for UMC-11, the relative viability in test [1] (first compound 0.02 µM) was found to be 0.941; in test [1] (first compound 0.06325 µM), 1.09; in test [1] (first compound 0.2 µM), 1.1; in test [1] (first compound 0.6325 µM) it was 1.09; in test [1] (first compound 2 µM), 1.09; in test [2] (first compound 0.01 µM), 0.567. Besides, the relative viability turned out to be 0.575 in test [2] (first compound 0.03162 µM); 0.538 in test [2] (first compound 0.1 µM); 0.666 in test [2] (first compound 0.3162 µM); 0.59 in test [2] (first compound 1 µM); 0.609 in test [3] (first compound 0.02 µM); 0.592 in test [3] (first compound 0.06325 µM). Further, the relative viability was found to be 0.717 in test [3] (first compound 0.2 µM); 0.668 in test [3] (first compound 0.6325 µM); 0.578 in test [3] (first compound 2 µM); 0.654 in test [4] (first compound 0.01 µM); 0.715 in test [4] (first compound 0.03162 µM); 0.676 in test [4] (first compound 0.1 µM). Besides, the relative viability in test [4] (first compound 0.3162 µM) is 1.06; in test [4] (first compound 1 µM), 0.625.

For the origin of these results see the supplement of paper PMC10307832.
